Test results as given in patent US20260306421A1, “SYSTEMS AND METHODS FOR TRANSDERMAN PATCH DELIVERY” (VITAMAX PATCH WHOLESALER LLC, priority 2022, published 2026).
≈ marks a conversion by molar mass, not a printed value. Marks after values point to notes of the source that are not given here. One block for each compound: values may come before it.

What was measured:
[1] = Solubility of cholecalciferol and cholecalciferol phosphate (disodium, acid); type: physicochemical; details: read-out: Solubility
Experimental: Aliquots of cholecalciferol, cholecalciferol phosphate disodium, and cholecalciferol phosphate acid were added to a range of solvents including propylene glycol (PG), distilled water, methanol, ethyl acetate, ethanol, n-hexane, and the visual solubility was determined. A precise assessment of the saturation solubility was for some of the solvent systems was made using high-performance liquid chromatography (HPLC). In the HPLC solubility studies, an excess of each solute was added into 2 mL of each test solvent. The solutions were left stirring overnight at room temperature, (RT), 22° C. The saturation of the solutions was confirmed by the visual appearance of crystals and the drug suspensions were filtered through 0.2 μm cellulose acetate syringe filters, diluted with excess of mobile phase, and the solute concentration of each sample was assessed using HPLC.

[2] = Chemical stability of cholecalciferol and cholecalciferol phosphate disodium in donor, extraction and receiver fluids; type: physicochemical; details: for remaining at 24 h: 37° C.
Experimental: To assess the chemical stability of the test agents in the liquids in which they were to be dissolved for the skin permeation experiments, 1 mg/mL solutions of cholecalciferol and cholecalciferol phosphate disodium in propylene glycol (PG) were prepared and incubated at 37° C. for 24 h. In addition, 100 μg/mL cholecalciferol in 50:50 PG:ethanol mixture, 100 μg/mL cholecalciferol phosphate disodium in 90:10 methanol:water mixture as well as and in 50% PG 40% Methanol: 10% water pH 3.2 (90:10) were also incubated at 37° C. for 24 hours.

[3] = Visual skin damage / necrosis after iron permeation study; details: after 24 h permeation study, porcine skin
Description: (§1) On the day of the experiment, the skin was defrosted. For the full thickness studies, the subcutaneous fat removed (2.5 mm thick) and for the dermatomes skin studies the tissued was dermatomed to a 1 mm thickness. The tissue was cut into the appropriate size sections (2.19±0.21 cm^2) and mounted between donor and receiver compartments of Franz diffusion cells with the SC facing the donor compartment. Each cell was sealed using parafilm and 12 mm magnetic stir bars were placed into the receiver compartment. The receiver compartment was filled with the desired receiver solution and the Franz cells were placed in a stirring water bath at 37° C. Cells were allowed to equilibrate for 30 min after which the receiver fluid using was mixed using a syringe and the “zero hour” sample was withdrawn from the arm and compensate with the same volume of fresh pre-warmed solution. Following zero-hour sampling, the donor solution was placed in the donor compartment and covered with parafilm. Samples were withdrawn and compensated with fresh receiver solution at set time intervals for a 24 h duration. The iron in each sample was quantified using the method specified in Section 2.2.2.1. […] There was no matrix interference noted in the assay. […] For iron maltol a 80:20 PG:water receiver was used along with a complementary calibration for iron assay (iron chloride in PG:water). The donor solution for the iron maltol made at pH 1.6 was 200 μL of 100 mg/mL complex in Transcutul®, for iron maltol made at pH 4 the donor solution was 200 μL of 23 mg/mL complex in PG and for iron maltol made at pH 4 the donor solution was 150 μL of 16 mg/mL complex in 7.5:1.5:1:1 water:PG:dimethicone:ethanol.

[4] = Solubility of iron chloride hexahydrate and iron complexes (visual / assayed); type: physicochemical
Experimental: Due to the high number of test samples (6 complexes plus the starting material, iron chloride hexahydrate) a visual solubility screen was used to screen the solubility in a range of solvents. […] Quantitative determination was performed by either incubating the complex in excess in the solvent using a shaking 37° C. water bath for 48 h or sonicating it for 2 hours at 40° C. or leaving overnight on a 50° C. hot plate. Once incubation period was completed, the exact solubility in a particular solvent was assayed (using the iron assay) after centrifugation (i.e. assay iron content in the supernatant using the Ferrozine® assay).

[5] = Franz cell porcine skin permeation and deposition of iron from solutions; type: in vitro ADME; details: for permeation and deposition in the skin: solutions
Experimental: The permeation of the iron complexes from the formulations into and across porcine skin mounted on Franz cells with a receiver fluid was tested (FIG. 4). This was based on the principles of the FDA, SUPAC-SS guidelines. The developed colorimetric assay method was used for iron quantification.
as §1
Once the permeation studies were completed the donor solutions were collected into bottles containing the extraction solution. This was followed by skin surface cleaning using four cotton buds, the first two were wetted by the extraction fluid and the second two were used dry. Then two tape striping procedures were performed using 2 tapes to remove any iron on the skin surface with the tape being added to the donor solution and cotton buds in the donor recover vial. For the full skin thickness skin, the Stratum corneum, the dermal and the epidermal layers were isolated in the same way as the recovery method (Section 2.3.2.1). Extraction fluid (50:50 PBS:ethanol) was then added to the tissues, 4 mL to the Stratum corneum, and 2 mL for each of the epidermis and dermis. For the dermatomed skin the whole skin section was chopped up and placed in a 2 mL extraction fluid (ethanol).
The Stratum corneum samples were placed on vibrating plate for a minimum of 2 h to extract the iron and then vortexed prior assay. The epidermis, dermis or dermatomed samples however were incubated with the extraction fluid for 1 h after which were transferred to Eppendorf tubes, one stainless steel 5 mm bead was added and the samples were loaded into the TissuLyser II (Qiagen, Germany) for 30-15 min at 30 Hz. The samples were then centrifuged (5 min at 13,000 rpm) and supernatant assayed.

[6] = Iron complex reservoir solvent solubility screening; type: physicochemical
Description: Iron complex was again screened with a range of suitable excipients and solvents to formulate a solution of high concentration that could be loaded into the patch reservoir. The solvents screened included ethanol, methanol, PG, PEG400, SDS, Tween 85, Span 20, Kolliphore®, Natrsol M250 and dimethicone (Note: methanol is not suitable for formulation but it was used to increase solubility in the other solvents. It was evaporated prior to formulation testing).

[7] = Iron complex adhesive compatibility and loading screen; type: physicochemical
Experimental: Pre-formulation studies were performed to determine the compatibility of the iron complexes with a range of transdermal patch adhesives (Table 15).
The compatibility of the complexes with the patch adhesives was assessed by mixing and visually checking the clarity of the mixture.
In the adhesives that were computable with the iron complexes the maximum drug loading of the complexes in the adhesive following solvent evaporation was determined. This was achieved by mixing the drug, adhesive and co-solvents until a clear solution was obtained at different drug:adhesive ratios and placing few drops of the mixture onto the patch backing sheet, leaving it to dry for 3-4 h, and examining the formed film on the surface of the backings for evidence of drug crystals.
Following complete drying of the solvents, the adhesive layer was covered by a release liner, compressed, and then cut using 34 mm circular manual die cutter (FIG. 23).

[8] = Solubility of zinc chloride and zinc complexes (visual / HPLC); type: physicochemical
Experimental: Accurate measurement of the solubility was then repeated for some of the solvent systems by HPLC. In the HPLC solubility studies, an excess of the test agents was loaded into 2 mL of each test solvent. The solutions were left stirring overnight at 32° C. […] The drug suspensions were then centrifuged, the supernatant diluted, and each sample concentration was measured using HPLC.

[9] = PG, 370 mg elemental iron dosed, 2 cm^2, 24 h
[10] = Iron maltol made at pH 7.4, 10 mg complex, 62.5 μL PG, 60 μL ethanol, 125 μL water, 62.5 μL Kolliphore
[11] = Iron maltol made at pH 7.4, 10 mg complex, 125 μL PG, 60 μL ethanol, 62.5 μL water, 62.5 μL Kolliphore

Compound: C=C1CC[C@H](O)C/C1=C/C=C1\CCC[C@]2(C)[C@@H]([C@H](C)CCCC(C)C)CC[C@@H]12 [Cholecalciferol, reference compound]
Solubility ([1]; organic solvent or mixture, solvent PG): 7.8 ± 0.19 mg/mL (≈ 20.3 mM)
Solubility ([1]; solvent PG + 5% water): 2.4 ± 0.002 mg/mL
Solubility ([1]; solvent PG + 10% water): 1.1 ± 0.005 mg/mL
Solubility ([1]; solvent PG + 20% water): 0.7 ± 0.004 mg/mL
remaining at 24 h ([2]; PG): 93 ± 13%
chemical stability (in words) ([2]; conclusions): indication of chemical instability
remaining at 24 h ([2]; extraction fluid 50:50 PG:ethanol): 92 ± 8%

Compound: O.O.O.O.O.O.[Cl-].[Cl-].[Cl-].[Fe+3] [Iron chloride hexahydrate, reference compound]
skin damage / necrosis [3]: necrosis of the skin
Solubility, equivalent elemental iron ([4]; PG): 370 mg/mL
Solubility ([4]; PG, as iron chloride hexahydrate): 1400 mg/mL
elemental iron permeated the skin [5, 9]: 180 mg
elemental iron permeated, percent of dose [5, 9]: 48%
dose above the desired target (4.6 mg) ([5]; PG, 24 h): 40 times

Solubility of complex (visual) ([4]; PEG400): <6 mg/mg/mL
Solubility of complex (visual) ([4]; PG): <6 mg/mg/mL
Solubility of complex ([4]; Transcutul): 100 mg/mg/mL
Solubility, equivalent elemental iron ([4]; Transcutul): to 13 mg/ mg/mL
permeation and deposition in the skin ([5]; 24 h): permeated and deposited in the skin
Compound: Cc1occc(=O)c1[O-].Cc1occc(=O)c1[O-].Cc1occc(=O)c1[O-].[Fe+3] [Iron maltol made at pH 1.6, iron maltol]
skin damage / necrosis [3]: caused skin necrosis

Solubility of complex ([4]; PEG400): 20 mg/mg/mL
Solubility, equivalent elemental iron ([4]; PEG400): to 2.7 mg/ mg/mL
Solubility of complex ([4]; PG): 17 ± 5 mg/mg/mL
Solubility, equivalent elemental iron ([4]; PG): to 2.3 ± 0.6 mg/mL
Solubility ([4]; PG and PEG400 (conclusions)): 18 mg/mL
Solubility of complex (visual) ([4]; Transcutul): <6 mg/mL
total delivered dose ([5]; PG solution, 24 h): 65 μg/cm^2
permeation and deposition in the skin ([5]; 24 h): permeated and deposited in the skin
Compound: Cc1occc(=O)c1[O-].Cc1occc(=O)c1[O-].Cc1occc(=O)c1[O-].[Fe+3] [Iron maltol made at pH 4, iron maltol]
skin damage / necrosis [3]: without inducing skin necrosis

Observation (solubility, complex) ([6]; Iron maltol made at pH 4, 10 mg complex, 50 μL 2% Nitrosol, 50 μL PG): 22 mg/mL
Observation ([6]; Iron maltol made at pH 4, 20 mg complex, 0.1 mL Kolliphore, 0.1 mL PEG400): Precipitated
Observation ([6]; Iron maltol made at pH 4, 20 mg complex, 0.1 mL Kolliphore, 0.1 mL PEG400, 10% SDS): Precipitated
Observation ([6]; Iron maltol made at pH 4, 20 mg complex, 0.2 mL Kolliphore): Precipitated
Observation ([6]; Iron maltol made at pH 4, 100 mg complex, 2 mL methanol, 1 mL 80:20 PEG400:PEG1000, precipitate upon methanol evaporation): Precipitate
Observation [6, 10]: Clear
Visual solubility (complex) [6, 10]: (32 mg/mL
Observation ([6]; Iron maltol made at pH 7.4, 10 mg complex, 62.5 μL PG, 62.5 μL water, 125 μL Kolliphore): Precipitated
Observation [6, 11]: Clear
Visual solubility (complex) [6, 11]: (32 mg/mL
Observation ([6]; Iron maltol made at pH 7.4, 20 mg complex, 6 μL Span 20, 0.125 mL ethanol, 0.5 mL PG): Precipitated
Observation ([6]; Iron maltol made at pH 7.4, 30 mg complex, 6 μL Tween 85, 0.125 mL ethanol, 0.5 mL PG): Precipitated
Observation ([6]; Iron maltol made at pH 7.4, 40 mg complex, 12 mg SDS, 0.125 mL ethanol, 0.5 mL PG): Precipitated
Solubility of complex (visual) ([4]; Chloroform): ≥20 mg/mL Iron
Solubility of complex (visual) ([4]; Ethanol): ≥6 mg/mL Iron maltol*
Solubility of complex (visual) ([4]; Ethyl acetate): <6 mg/mL Iron maltol*
Solubility of complex (visual) ([4]; Hexane): <6 mg/mL Iron maltol*
Solubility of complex (visual) ([4]; Methanol): ≥18 mg/mL Iron
Solubility of complex (visual) ([4]; Oleic acid): <6 mg/mL Iron maltol*
Solubility of complex (visual) ([4]; Propanol): <6 mg/mL Iron maltol*
Solubility of complex (visual) ([4]; Triaceten): <6 mg/mL Iron maltol*
compatibility with adhesives [7]: only compatible with DURO-TAK 9301
(maximum) complex loading achieved in adhesive ([7]; methanol stock solution 10 mg/mL): 4%
complex loading achieved in adhesive patch ([7]; methanol stock solution 18 mg/mL): 8.5%
Compound: Cc1occc(=O)c1[O-].Cc1occc(=O)c1[O-].Cc1occc(=O)c1[O-].[Fe+3] [Iron maltol, iron maltol]

Compound: [Cl-].[Cl-].[Zn+2] [Zinc Chloride, Zinc chloride, reference compound]
Elemental zinc solubility (visual) ([8]; solvent PEG400, visual solubility (*)): ~2.7* mg/mL
Elemental zinc solubility evaluated by HPLC ([8]; solvent PG): 2.7 mg/mL
